In US12539306B2, “Mucoadhesive pharmaceutical compositions of corticosteroids” (Ferring B.V., priority 2018, dated 2026):
Converted amounts (≈) assume the structure as drawn. Where two headings read alike, the source gives them in different places.

Assay: Solubility of budesonide at room temperature
Type: physicochemical
Protocol: The solubility at room temperature of budesonide in water was determined to be about. 0.01 mg/ml, about 1 mg/ml in glycerin and about 10 mg/ml in propylene glycol at room temperature.

Compound: CCCC1O[C@@H]2C[C@H]3[C@@H]4CCC5=CC(=O)C=C[C@]5(C)[C@H]4[C@@H](O)C[C@]3(C)[C@]2(C(=O)CO)O1 (stereo partly drawn) [budesonide, 16,17-butylidenebis(oxy)-11,21-dihydroxy-, (11β, 16α)-pregna-1,4-diene-3,20-dione]
- solubility (organic solvent or mixture, glycerin, read-out: solubility in glycerin): ~1000 µg/mL (≈ 2320 µM)
- solubility (organic solvent or mixture, propylene glycol, read-out: solubility in propylene glycol): ~10000 µg/mL (≈ 23200 µM)
- solubility (water, read-out: solubility in water): ~10 µg/mL (≈ 23.2 µM)
